Data from US20260109707A1, “HETEROBIFUNCTIONAL COMPOUNDS AND METHODS OF TREATING DISEASE” (Halda Therapeutics OpCo. Inc., priority 2022, published 2026).
Read-outs that look alike come from different tables or passages of the source.

How the values were obtained:
[1] = system: T-Rex 293 cell line SC3 cells having increased expression of androgen receptor protein due to exposure to doxycycline; experiment: Cellular growth inhibition assay, T-Rex 293 SC3 cells with doxycycline (CellTiter-Glo, 72 hours); format: cell-based; settings: T-Rex 293 SC3 cells with increased androgen receptor expression due to doxycycline (10 ng/mL)
Method in brief: (§1)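 Doxycycline (10 ng/mL) was either included or omitted to toggle wild-type androgen receptor expression in SC3 cells, a T-Rex 293 clone, grown in stripped-serum, phenol red-free medium. After 72 hours with compound, viable cells were quantified by CellTiter-Glo 2.0.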

[2] = system: VCaP cells; experiment: Cellular growth inhibition assay for VCaP cells (CellTiter-Glo, 72 hours); format: cell-based, human
Method in brief: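 Luminescent viability signal after 72 h of compound exposure gave GI50 values by four-parameter nonlinear regression. Compounds were added in 0.5% DMSO to cells plated 24 h earlier at 5000/well in DMEM containing 10% FBS.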

[3] = system: T47D cells; experiment: Cellular growth inhibition assay for T47D cells (CellTiter-Glo, 72 hours); format: cell-based, human; settings: 72 hours treatment
Method in brief: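 Luminescence from CellTiter-Glo 2.0 after 72 h of compound exposure gives the viability signal. Cells grew in insulin-supplemented (0.2 units/mL) DMEM with 10% FBS and were treated one day after seeding at 0.5% DMSO. GI50 values come from four-parameter nonlinear regression.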

[4] = system: T-Rex 293 cell line SC3 cells lacking increased expression of androgen receptor protein; experiment: Cellular growth inhibition assay, T-Rex 293 SC3 cells without doxycycline (CellTiter-Glo, 72 hours); format: cell-based; settings: T-Rex 293 cell line SC3 cells not exposed to doxycycline (lacking increased androgen receptor expression)
Method in brief: as §1

GI50 ([2]; Homo sapiens, VCaP, 72 h)	GI50 ([3]; Homo sapiens, T47D, 72 h)	GI50 [2]	GI50 [3]	SMILES	GI50 ([1]; 72 h)	GI50 ([4]; 72 h)	GI50 [1]	GI50 [4]
< 500 nM	< 500 nM	–	–	Cc1sc2c(c1C)C(c1ccc(CCOC3CCN(c4ccc(C(=O)N[C@H]5CC[C@H](Oc6ccc(C#N)c(Cl)c6)CC5)nn4)CC3)cc1)=NC(Cc1ncco1)c1nnc(C)n1-2 (stereo partly drawn) [I-110]	< 500 nM	> 3000 nM	–	–
500 to 1500 nM	1500 to 3000 nM	–	–	Cc1sc2c(c1C)C(c1ccc(C#CCC3CCN(c4ccc(C(=O)N[C@H]5CC[C@H](Oc6ccc(C#N)c(Cl)c6)CC5)nn4)CC3)cc1)=N[C@H](Cc1ncco1)c1nnc(C)n1-2 [I-137]	< 500 nM	> 3000 nM	–	–
–	–	< 500 nM	< 500 nM	Cc1sc2c(c1C)C(c1ccc(OC3CN(CC4CCN(c5ccc(C(=O)N[C@H]6CC[C@H](Oc7ccc(C#N)c(Cl)c7)CC6)nn5)CC4)C3)cc1)=N[C@@H](Cc1ncco1)c1nnc(C)n1-2 [I-87]	–	–	< 500 nM	< 500 nM
< 500 nM	500 to 1500 nM	–	–	Cc1sc2c(c1C)C(c1ccc(CC[C@@H]3CCCN(c4ccc(C(=O)N[C@H]5CC[C@H](Oc6ccc(C#N)c(Cl)c6)CC5)nn4)C3)cc1)=N[C@@H](Cc1ncco1)c1nnc(C)n1-2 [I-255]	< 500 nM	< 500 nM	–	–
< 500 nM	< 500 nM	–	–	Cc1sc2c(c1C)C(c1ccc(CC3CN([C@@H]4CCN(c5ccc(C(=O)N[C@H]6CC[C@H](Oc7ccc(C#N)c(Cl)c7)CC6)nn5)C4)C3)cc1)=N[C@@H](Cc1ncco1)c1nnc(C)n1-2 [I-115]	< 500 nM	< 500 nM	–	–
> 3000 nM	1500 to 3000 nM	–	–	Cc1sc2c(c1C)C(c1ccc(C[C@H]3C[C@H](C4CCCN(c5ccc(C(=O)N[C@H]6CC[C@H](Oc7ccc(C#N)c(Cl)c7)CC6)nn5)C4)C3)cc1)=N[C@@H](Cc1ncco1)c1nnc(C)n1-2 (stereo partly drawn) [I-121]	1500 to 3000 nM	> 3000 nM	–	–
< 500 nM	< 500 nM	–	–	Cc1sc2c(c1C)C(c1ccc(CCC[C@H]3CCCN(c4ccc(C(=O)N[C@H]5CC[C@H](Oc6ccc(C#N)c(Cl)c6)CC5)nn4)C3)cc1)=N[C@@H](Cc1ncco1)c1nnc(C)n1-2 [I-277]	< 500 nM	< 500 nM	–	–
> 3000 nM	> 3000 nM	–	–	Cc1sc2c(c1C)C(c1ccc(C(C)(C)N3CCC4(CCCN(c5ccc(C(=O)N[C@H]6CC[C@H](Oc7ccc(C#N)c(Cl)c7)CC6)nn5)C4)C3)cc1)=N[C@@H](Cc1ncco1)c1nnc(C)n1-2 (stereo partly drawn) [I-359]	> 3000 nM	> 3000 nM	–	–
> 3000 nM	> 3000 nM	–	–	Cc1sc2c(c1C)C(c1ccc([C@H]3CC[C@H](N4CCCN(c5ccc(C(=O)N[C@H]6CC[C@H](Oc7ccc(C#N)c(Cl)c7)CC6)nn5)CC4)CC3)cc1)=N[C@@H](Cc1ncco1)c1nnc(C)n1-2 [I-236]	< 500 nM	> 3000 nM	–	–
< 500 nM	< 500 nM	–	–	Cc1sc2c(c1C)C(c1ccc(C#C[C@H]3C[C@@]4(CCCN(c5ccc(C(=O)N[C@H]6CC[C@H](Oc7ccc(C#N)c(Cl)c7)CC6)nn5)C4)C3)cc1)=N[C@@H](Cc1ncco1)c1nnc(C)n1-2 [I-235]	< 500 nM	< 500 nM	–	–
< 500 nM	< 500 nM	–	–	Cc1sc2c(c1C)C(c1ccc(C3CC(N4CCN(c5ccc(C(=O)N[C@H]6CC[C@H](Oc7ccc(C#N)c(Cl)c7)CC6)nn5)CC4)C3)cc1)=N[C@@H](Cc1ncco1)c1nnc(C)n1-2 (stereo partly drawn) [I-437]	< 500 nM	< 500 nM	–	–
< 500 nM	1500 to 3000 nM	–	–	Cc1sc2c(c1C)C(c1ccc(OC3CC4(CCN(c5ccc(C(=O)N[C@H]6CC[C@H](Oc7ccc(C#N)c(Cl)c7)CC6)nn5)CC4)C3)cc1)=NC(Cc1ncco1)c1nnc(C)n1-2 (stereo partly drawn) [I-77]	< 500 nM	500 to 1500 nM	–	–

More lines, now with the values behind:

SMILES	GI50 ([2]; Homo sapiens, VCaP, 72 h)	GI50 ([3]; Homo sapiens, T47D, 72 h)	GI50 [2]	GI50 [3]	GI50 ([1]; 72 h)	GI50 ([4]; 72 h)	GI50 [1]	GI50 [4]
Cc1sc2c(c1C)C(c1ccc(C[C@@H]3CC[C@]4(C3)CN(c3ccc(C(=O)N[C@H]5CC[C@H](Oc6ccc(C#N)c(Cl)c6)CC5)nn3)CCO4)cc1)=NC(Cc1ncco1)c1nnc(C)n1-2 (stereo partly drawn) [I-288]	< 500 nM	< 500 nM	–	–	< 500 nM	< 500 nM	–	–
Cc1sc2c(c1C)C(c1ccc(C[C@H]3C[C@@]4(CN(c5ccc(C(=O)N[C@H]6CC[C@H](Oc7ccc(C#N)c(Cl)c7)CC6)nn5)CCO4)C3)cc1)=N[C@@H](Cc1ncco1)c1nnc(C)n1-2 [I-210]	> 3000 nM	500 to 1500 nM	–	–	> 3000 nM	> 3000 nM	–	–
Cc1sc2c(c1C)C(c1ccc(C#CC3CC4(CCCN(c5ccc(C(=O)NC6CCC(Oc7ccc(C#N)c(Cl)c7)CC6)nn5)C4)C3)cc1)=NCc1nnc(C)n1-2 (stereo not drawn) [I-419]	< 500 nM	< 500 nM	–	–	< 500 nM	> 3000 nM	–	–
Cc1sc2c(c1C)C(c1ccc(OC[C@@H]3CC[C@@]4(CCCN(c5ccc(C(=O)N[C@H]6CC[C@H](Oc7ccc(C#N)c(Cl)c7)CC6)nn5)C4)C3)nc1)=N[C@@H](Cc1ncco1)c1nnc(C)n1-2 [I-330]	< 500 nM	> 3000 nM	–	–	< 500 nM	> 3000 nM	–	–
Cc1sc2c(c1C)C(c1ccc(OC3CC4(CCN(c5ccc(C(=O)N[C@H]6CC[C@H](Oc7ccc(C#N)c(Cl)c7)CC6)nn5)CC4)C3)cc1)=N[C@@H](CC(C)(C)O)c1nnc(C)n1-2 [I-245]	< 500 nM	> 3000 nM	–	–	< 500 nM	> 3000 nM	–	–
Cc1sc2c(c1C)C(c1ccc(N3CCC4(CC3)CCN(c3ccc(C(=O)N[C@H]5CC[C@H](Oc6ccc(C#N)c(Cl)c6)CC5)nn3)C4)cc1)=NC1(CC1)c1nnc(C)n1-2 [I-399]	< 500 nM	1500 to 3000 nM	–	–	< 500 nM	500 to 1500 nM	–	–
Cc1sc2c(c1C)C(c1ccc(O[C@H]3C[C@@]4(CCCN(c5ccc(C(=O)N[C@H]6CC[C@H](Oc7ccc(C#N)c(Cl)c7)CC6)nn5)C4)C3)nc1)=N[C@@H](Cc1ncco1)c1nnc(C)n1-2 [I-220]	500 to 1500 nM	500 to 1500 nM	–	–	< 500 nM	> 3000 nM	–	–
Cc1sc2c(c1C)C(c1ccc(O[C@@H]3CC[C@@]4(CCCN(c5ccc(C(=O)N[C@H]6CC[C@H](Oc7ccc(C#N)c(Cl)c7)CC6)nn5)C4)C3)nc1)=N[C@@H](Cc1ncco1)c1nnc(C)n1-2 [I-287]	–	–	< 500 nM	500 to 1500 nM	–	–	< 500 nM	< 500 nM
Cc1sc2c(c1C)C(c1ccc(N3CCC4(CC3)CC(Cc3ccc(C(=O)N[C@H]5CC[C@H](Oc6ccc(C#N)c(Cl)c6)CC5)nn3)C4)cc1)=NC(Cc1ncco1)c1nnc(C)n1-2 (stereo partly drawn) [I-415]	< 500 nM	500 to 1500 nM	–	–	< 500 nM	–	–	> 3000 nM
Cc1sc2c(c1C)C(c1ccc(CN(C)C(=O)[C@@H]3CC[C@H](c4ccc(C(=O)N[C@H]5CC[C@H](Oc6ccc(C#N)c(Cl)c6)CC5)nn4)C3)cc1)=N[C@@H](Cc1ncco1)c1nnc(C)n1-2 [I-315]	< 500 nM	500 to 1500 nM	–	–	< 500 nM	> 3000 nM	–	–
Cc1sc2c(c1C)C(c1ccc(N3CCC4(CC3)CCN(c3ccc(C(=O)N[C@H]5CC[C@H](Oc6ccc(C#N)c(Cl)c6)CC5)nn3)C4)cc1)=N[C@@H](C)c1nnc(C)n1-2 [I-430]	–	–	< 500 nM	< 500 nM	–	–	< 500 nM	< 500 nM
Cc1sc2c(c1C)C(c1ccc(CCC[C@@H]3CCCN(c4ccc(C(=O)N[C@H]5CC[C@H](Oc6ccc(C#N)c(Cl)c6)CC5)nn4)C3)cc1)=N[C@@H](C)c1nnc(C)n1-2 [I-308]	< 500 nM	500 to 1500 nM	–	–	< 500 nM	> 3000 nM	–	–
